For series [1], the target named is T1, VLA-4 (Homo sapiens, UniProt P05556+P13612).
T1 construct: endogenous in cells; host or cells: Jurkat cells
The series can be described thus: VLA-4 direct binding assay (VCAM-IgG alkaline phosphatase conjugate binding to Jurkat cells). The note with it: Table 1, Structure-Activity; assay and unit inferred; read-out: Act. An excerpt: A direct binding assay may also be employed to quantitate the inhibitory activity of the compounds of this invention. (“DBA”) In direct binding assays, for example, a VCAM-IgG fusion protein containing the first two immunoglobulin domains of VCAM (D1D2) attached above the hinge region of an IgG1 molecule (“VCAM 2D-IgG”), is conjugated to a marker enzyme, such as alkaline phosphatase (“AP”). The synthesis of this VCAM-IgG fusion is described in PCT publication WO 90/13300, the disclosure of which is herein incorporated by reference. The conjugation of that fusion to a marker enzyme can be achieved by cross-linking methods well-known in the art.
The VCAM-IgG enzyme conjugate is then placed in the wells of a multi-well filtration plate, such as that contained in the Millipore Multiscreen Assay System (Millipore Corp., Bedford, Mass.). Varying concentrations of the test inhibitory compound are then added to the wells followed by addition of VLA-4-expressing cells. The cells, compound and VCAM-IgG enzyme conjugate are mixed together and allowed to incubate at room temperature.
Following incubation, the wells are vacuum drained, leaving behind the cells and any bound VCAM. Quantitation of bound VCAM is determined by adding an appropriate calorimetric substrate for the enzyme conjugated to VCAM-IgG and determining the amount of reaction product. Decreased reaction product indicates increased binding inhibitory activity. The protocol is described more specifically below:
1. Block a 96 well Millipore Multiscreen Assay System filtration plate^1 with 200:l/well of blocking buffer (1×Phosphate Buffered Saline, 0.1%Tween 20, 1%BSA) for at least 1 hour at room temperature.
2. Drain the plate with the vacuum manifold, and wash with 200 μl/well of assay buffer (Tris Buffered Saline, 0.1% BSA, 2 mM glucose, 10 mM HEPES, pH 7.5) draining the plate in between. Repeat twice. Then blot the plate bottom on paper to remove excess buffer.
3. Prepare a 4 μg/ml VCAMIg-AP solution (Alkaline phosphatase coupled to VCAMIg) in assay buffer and filter with a 0.2:low protein binding syringe filter (Gelman Sciences #4454). From this stock, prepare a 0.4 μg/ml working solution of VCAMIg-AP in assay buffer. Add 25:l of 0.4 μg/ml VCAMIg-AP to every well.
5. Prepare dilutions of compounds to be tested in assay buffer. Concentrations should be 4× the desired final concentration and run in triplicate. Add 25 μl of the compound dilutions to designated wells.
7. Jurkat cells are centrifuged to remove cell culture media and washed once in assay buffer. Resuspend the washed Jurkat cells to a concentration of 8×10^6/ml in assay buffer containing 2 mM MnCl2. Pipeting the mixture up and down to ensure a uniform cell suspension. Add 50:l of cell suspension to each well except the NSB wells.
8. Gently tap the sides of the plate to mix well contents. Incubate the plate for 60 minutes at room temperature (RT).
9. Place the plate on the vacuum manifold to drain the well contents. Wash twice with 100 μl/well of wash buffer (assay buffer containing 1 mM MnCl2). Drain the plate and blot on paper towels.
10. Add 10 mg/ml of 4-Nitro phenyl phosphate to Substrate buffer (0.1M glycine, 1 mM ZnCl2, 1 mM MgCl2, pH 10.5). Add 100 μl/well and incubate for exactly 30 minutes at RT.
11. To stop the reaction, add 100 μl/well of 3N NaOH.
12. Read the 96-well plate in a Molecular Devices ELISA platereader at 405 nm. Analyze data with SoftMax software.

Series [2] addresses IIb/IIIa (Homo sapiens, UniProt P05106+P08514). The series is described as follows: IIb/IIIa inhibitory activity (receptor-ligand binding or platelet aggregation). The note with it: qualitative statement. An excerpt: In a basic embodiment, therefore, one skilled in the art first identifies a compound having IIb/IIIa inhibitory activity. Compounds having IIb/IIIa inhibitory activity are well known to those skilled in the art, and are readily available, see, e.g., Table 2 and the references incorporated herein in the Background of the Invention. For purposes of this invention, one skilled in the art may use any of these known compounds. Alternatively, one may determine in assays known to those skilled in the art whether a particular compound has IIB/IIIa activity. If the assay is positive, then the scaffold will be useful in the present invention. Assays for IIb/IIIa inhibitory activity are well known in the art. […] (WO 093/00095, specifically incorporated herein by reference.) Additionally, the aforementioned binding to ligands can be assessed by one skilled in the art in a platelet aggregation assay.

For orientation: melting point means the temperature of the solid-liquid transition.

pIC50: −log10 of the molar value.

T1 sequence (P13612 34-1032): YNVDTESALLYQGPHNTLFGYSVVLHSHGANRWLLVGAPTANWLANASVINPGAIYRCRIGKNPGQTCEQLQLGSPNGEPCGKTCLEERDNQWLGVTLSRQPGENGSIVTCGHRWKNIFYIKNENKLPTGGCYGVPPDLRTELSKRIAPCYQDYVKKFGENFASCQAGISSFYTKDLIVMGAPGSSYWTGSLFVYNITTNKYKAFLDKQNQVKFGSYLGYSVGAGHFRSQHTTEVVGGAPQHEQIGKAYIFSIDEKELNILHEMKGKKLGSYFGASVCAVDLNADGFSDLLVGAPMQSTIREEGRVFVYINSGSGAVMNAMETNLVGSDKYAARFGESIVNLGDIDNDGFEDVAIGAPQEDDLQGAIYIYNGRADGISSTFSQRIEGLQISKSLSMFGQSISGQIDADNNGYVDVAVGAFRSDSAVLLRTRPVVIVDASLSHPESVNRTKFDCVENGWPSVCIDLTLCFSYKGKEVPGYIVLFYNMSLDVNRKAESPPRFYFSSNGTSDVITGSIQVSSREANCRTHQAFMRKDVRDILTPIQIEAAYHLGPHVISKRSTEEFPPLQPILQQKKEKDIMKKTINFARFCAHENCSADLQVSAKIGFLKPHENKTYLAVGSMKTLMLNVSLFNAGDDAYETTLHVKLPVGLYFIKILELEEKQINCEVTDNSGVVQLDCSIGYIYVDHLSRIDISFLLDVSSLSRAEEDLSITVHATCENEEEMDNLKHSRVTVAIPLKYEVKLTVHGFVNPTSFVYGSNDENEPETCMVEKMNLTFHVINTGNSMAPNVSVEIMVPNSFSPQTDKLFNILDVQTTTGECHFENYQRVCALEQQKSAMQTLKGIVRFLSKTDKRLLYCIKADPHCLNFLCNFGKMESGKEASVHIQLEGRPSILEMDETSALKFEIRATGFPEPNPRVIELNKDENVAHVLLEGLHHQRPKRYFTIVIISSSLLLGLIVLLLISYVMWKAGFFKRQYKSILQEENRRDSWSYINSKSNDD
T1 sequence (P05556 21-798): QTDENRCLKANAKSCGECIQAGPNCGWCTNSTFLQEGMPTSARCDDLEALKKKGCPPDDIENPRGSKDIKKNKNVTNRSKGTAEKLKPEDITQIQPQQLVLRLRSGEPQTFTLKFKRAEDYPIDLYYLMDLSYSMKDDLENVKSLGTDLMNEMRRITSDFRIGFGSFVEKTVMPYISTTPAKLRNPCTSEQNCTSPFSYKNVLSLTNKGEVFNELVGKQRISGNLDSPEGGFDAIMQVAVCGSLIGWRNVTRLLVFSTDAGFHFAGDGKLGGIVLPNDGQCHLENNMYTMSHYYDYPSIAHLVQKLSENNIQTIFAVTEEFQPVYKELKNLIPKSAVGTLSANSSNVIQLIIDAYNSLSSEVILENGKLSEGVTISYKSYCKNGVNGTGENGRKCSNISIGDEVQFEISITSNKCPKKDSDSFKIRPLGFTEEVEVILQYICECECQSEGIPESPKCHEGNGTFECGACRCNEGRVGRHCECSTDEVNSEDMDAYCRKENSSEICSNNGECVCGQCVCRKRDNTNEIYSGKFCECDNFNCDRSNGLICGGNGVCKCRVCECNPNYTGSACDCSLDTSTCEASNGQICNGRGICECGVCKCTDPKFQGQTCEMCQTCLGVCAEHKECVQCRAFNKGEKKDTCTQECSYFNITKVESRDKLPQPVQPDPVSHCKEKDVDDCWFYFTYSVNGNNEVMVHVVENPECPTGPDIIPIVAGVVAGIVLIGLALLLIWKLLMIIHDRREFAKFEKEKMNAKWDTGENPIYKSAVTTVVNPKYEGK
Chain of IIb/IIIa (P08514 32-887 limits assumed): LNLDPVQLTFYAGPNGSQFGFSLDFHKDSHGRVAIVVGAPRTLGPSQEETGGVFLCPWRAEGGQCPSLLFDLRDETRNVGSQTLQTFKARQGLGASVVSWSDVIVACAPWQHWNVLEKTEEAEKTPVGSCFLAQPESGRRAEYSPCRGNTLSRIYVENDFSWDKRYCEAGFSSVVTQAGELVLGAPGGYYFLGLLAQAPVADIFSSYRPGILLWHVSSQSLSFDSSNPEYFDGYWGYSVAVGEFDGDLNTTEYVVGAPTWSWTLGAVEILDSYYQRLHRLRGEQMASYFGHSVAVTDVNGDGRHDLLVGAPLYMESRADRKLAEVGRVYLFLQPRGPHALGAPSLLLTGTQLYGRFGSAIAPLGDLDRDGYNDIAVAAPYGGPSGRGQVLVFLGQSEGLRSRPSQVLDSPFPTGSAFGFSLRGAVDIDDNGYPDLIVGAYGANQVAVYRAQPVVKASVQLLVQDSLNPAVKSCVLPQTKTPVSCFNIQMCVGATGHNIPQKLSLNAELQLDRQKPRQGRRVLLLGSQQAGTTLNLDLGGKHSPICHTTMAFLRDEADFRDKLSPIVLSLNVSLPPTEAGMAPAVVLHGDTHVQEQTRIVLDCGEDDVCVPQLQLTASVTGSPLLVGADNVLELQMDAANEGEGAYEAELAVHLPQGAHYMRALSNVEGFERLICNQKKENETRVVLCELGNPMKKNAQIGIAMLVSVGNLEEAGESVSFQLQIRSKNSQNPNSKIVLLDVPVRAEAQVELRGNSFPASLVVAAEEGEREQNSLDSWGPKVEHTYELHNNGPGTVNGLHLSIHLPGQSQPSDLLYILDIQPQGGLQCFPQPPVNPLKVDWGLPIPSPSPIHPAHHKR
Chain of IIb/IIIa (P08514 891-1039 limits assumed): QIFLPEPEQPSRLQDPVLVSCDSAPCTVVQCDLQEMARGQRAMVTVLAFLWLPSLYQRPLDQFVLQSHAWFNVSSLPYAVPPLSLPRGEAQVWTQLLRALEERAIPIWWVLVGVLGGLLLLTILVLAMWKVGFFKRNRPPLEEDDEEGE
Chain of IIb/IIIa (P05106 27-788): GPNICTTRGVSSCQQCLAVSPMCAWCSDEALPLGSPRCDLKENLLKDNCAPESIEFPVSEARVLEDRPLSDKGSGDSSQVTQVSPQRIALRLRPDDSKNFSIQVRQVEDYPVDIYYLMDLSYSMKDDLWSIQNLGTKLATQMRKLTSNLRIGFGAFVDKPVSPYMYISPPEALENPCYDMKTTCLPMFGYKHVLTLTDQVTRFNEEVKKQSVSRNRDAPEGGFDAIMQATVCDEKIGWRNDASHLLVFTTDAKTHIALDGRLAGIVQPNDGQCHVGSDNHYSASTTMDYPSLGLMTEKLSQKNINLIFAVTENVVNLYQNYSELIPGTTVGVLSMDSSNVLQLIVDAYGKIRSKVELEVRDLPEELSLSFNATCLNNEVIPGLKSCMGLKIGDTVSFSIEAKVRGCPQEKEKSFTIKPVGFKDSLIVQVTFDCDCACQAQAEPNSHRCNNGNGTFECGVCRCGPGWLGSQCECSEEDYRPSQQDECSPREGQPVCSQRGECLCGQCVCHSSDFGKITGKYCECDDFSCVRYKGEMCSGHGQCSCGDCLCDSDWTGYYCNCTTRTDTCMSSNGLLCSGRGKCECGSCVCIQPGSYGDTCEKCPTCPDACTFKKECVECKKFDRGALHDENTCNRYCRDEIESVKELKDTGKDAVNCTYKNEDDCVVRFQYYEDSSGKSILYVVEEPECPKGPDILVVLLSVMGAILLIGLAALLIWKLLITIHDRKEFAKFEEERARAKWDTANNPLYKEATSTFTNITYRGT

With `COCCC(=O)N(CCC(=O)O)CC(=O)N(CCC(C)C)CC(=O)Nc1ccc(NC(=O)Nc2ccccc2C)cc1` [AY44], the melting point lay within 164 to 166 °C. As for `COc1ccc([C@H](CC(=O)O)NC(=O)C(CC(=O)Nc2ccc(COCc3ccccc3)cc2)CC(C)C)cc1OC` (some centres unmarked) [SX29], the pIC50 in series [1] is 6.15. With `CCOC(=O)CCN1CC(=O)N(CCC(=O)O)Cc2cc(NC(=O)Cc3ccc(NC(=O)Nc4ccccc4C)cc3)ccc21` [BX72], the pIC50 in series [1] is 7.90. Same read-out and setting: with `Cc1ccccc1NC(=O)Nc1ccc(NC(=O)CN(CCC(C)C)C(=O)CN(CCC(=O)O)C(=O)N2CCOCC2)cc1` [AX37] the figure was 7.22; with `CSCCCN(CC(=O)Nc1ccc(NC(=O)Nc2ccccc2)cc1)C(=O)CN(CCC(=O)O)C(=O)c1ccccc1` [AX27], 6.70. On the same count and under the same terms, with `Cc1ccccc1NC(=O)Nc1ccc(CC(=O)Nc2ccc3c(c2)C(=O)N(CCC(=O)O)C(C)C(=O)N3C)cc1` (centres unmarked) [BX38] the figure was 6.26. On the same count and under the same terms, with `Cc1ccccc1NC(=O)Nc1ccc(NC(=O)CN(CCC(C)C)C(=O)CN(CCC(=O)O)C(=O)COc2ccccc2)cc1` [AX34] the figure was 7.04; with `COCCCN1CC(=O)N(CCC(=O)O)Cc2cc(NC(=O)Cc3ccc(NC(=O)Nc4ccccc4C)cc3)ccc21` [BX70], 7.52. On to `Cc1ccccc1NC(=O)Nc1ccc(NC(=O)CC(CC(C)C)C(=O)N[C@@H](CC(=O)O)CN2CCOCC2)cc1` (some centres unmarked) [SX7], for which the pIC50 in series [1] is 5.22.

For `Cc1ccccc1NC(=O)Nc1ccc(CC(=O)Nc2cccc(S(=O)(=O)NCCC(=O)O)c2)cc1` [RX5], the pIC50 in series [1] is 5.42. On the same count and under the same terms, with `Cc1ccccc1NC(=O)Nc1ccc(NC(=O)[C@@H]2CCCN2C(=O)CCCC(=O)O)cc1` [CX8] the figure was 6.32; with `Cc1ccccc1NC(=O)Nc1ccc(C(=O)NCc2ccc3c(c2)C(=O)N(CCC(=O)O)CC(=O)N3C)cc1` [BX29], 6.08; with `COc1cccc(C(=O)N(CCC(=O)O)CC(=O)N(CCC(C)C)CC(=O)Nc2ccc(OCC(=O)Nc3ccccc3)cc2)c1` [AX19], 5.21. Still for that read-out and setting: with `Cc1ccccc1NC(=O)Nc1ccc(CC(=O)Nc2cccc(NCCC(=O)O)c2)cc1` [RX15] the figure was 6.19; with `COc1ccc(C(CC(=O)O)NC(=O)C(CC(=O)NCc2ccccc2)CC(C)C)cc1` (centres unmarked) [SX28], 6.14; with `COc1ccc(C(CC(=O)O)NC(=O)C(CC(=O)NCc2ccccc2)CC(C)C)cc1` (centres unmarked) [SX6], 5.17. `Cc1ccccc1NC(=O)Nc1ccc(NC(=O)[C@@H]2CSCN2C(=O)CCCCC(=O)O)cc1` [CX12]: in series [1], the pIC50 is 7.20. Consider `Cc1ccccc1NC(=O)Nc1ccc(CC(=O)Nc2cccc(CN(CCC(=O)O)C(=O)Cc3ccccc3)c2)cc1` [RX8], for which the pIC50 in series [1] was 5.65. The same measure, in the same setting: with `CC(CC(=O)Nc1ccc(NC(=O)Nc2ccccc2)cc1)C(=O)N[C@H](C)CC(=O)O` (some centres unmarked) [SX43] the figure was 6.61; with `Cc1ccccc1NC(=O)Nc1ccc(CC(=O)NCc2cccc(OCCCC(=O)O)c2)cc1` [RX14], 6.19. Regarding `Cc1ccccc1NC(=O)Nc1ccc(CC(=O)Nc2cccc(OC/C=C/C(=O)O)c2)cc1` [RX21], the pIC50 in series [1] is 6.55. On the same count and under the same terms, with `Cc1ccccc1NC(=O)Nc1ccc(CC(=O)Nc2ccc3c(c2)C(=O)N(CCC(=O)O)CC(=O)N3C2CCCCC2)cc1` [BX40] the figure was 6.36; with `Cc1ccccc1NC(=O)Nc1ccc(CC(=O)Nc2ccc(C)c(OCCCC(=O)O)c2)cc1` [RX24], 6.07. Still for that read-out and setting: with `Cc1ccccc1NC(=O)Nc1ccc(CNC(=O)C(CC(=O)NC(CC(=O)O)c2ccc3c(c2)OCO3)CC(C)C)cc1` (centres unmarked) [SX34] the figure was 6.30; with `COc1cccc(C(=O)N(CCC(=O)O)CC(=O)N(CCC(C)C)CC(=O)Nc2ccccc2)c1` [AX18], 5.85. As to `CN(CC(=O)N1CCC(C2CCNCC2)CC1)C(=O)CN(CCC(=O)O)C(=O)c1ccccc1` [Compound B], the IIb/IIIa inhibitory activity result in series [2] is given as “potent IIB/IIIa inhibitor”. Take `COc1cccc(C(=O)N(CCC(=O)O)CC(=O)N(CCC(C)C)CC(=O)Nc2ccc(C(=O)CC(=O)Nc3ccccc3Cl)cc2)c1` [AX23]: the pIC50 in series [1] is 6.24.

Consider `Cc1ccccc1NC(=O)Nc1ccc(CC(=O)Nc2cccc(OCCC(C)C(=O)O)c2)cc1` (centres unmarked) [RX6], for which the pIC50 in series [1] was 5.59. Regarding `COc1ccc(C(CC(=O)O)NC(=O)[C@@H](CC(=O)Nc2ccc(NC(=O)Nc3ccccc3C)cc2)CC(C)C)cc1OC` (some centres unmarked) [SX44], in series [1], the pIC50 was 6.63. The same measure, in the same setting: with `Cc1ccccc1NC(=O)Nc1ccc(N(C)C(=O)CCC(=O)N[C@H](C)CC(=O)O)cc1` [SX48] the figure was 6.71; with `Cc1ccccc1NC(=O)Nc1ccc(NC(=O)Cc2ccc3c(c2)C(=O)N(CCC(=O)O)CC(=O)N3C)cc1` [BX33], 6.05. Still for that read-out and setting: with `Cc1ccccc1NC(=O)Nc1ccc(NC(=O)CN(CCC(C)C)C(=O)CCCCC(=O)O)cc1` [CX13] the figure was 7.28. In the case of `COc1ccc([C@H](CC(=O)O)NC(=O)C(N)CC(=O)Nc2ccc(NC(=O)Nc3ccccc3C)cc2)cc1OC` (some centres unmarked) [SX19], the pIC50 in series [1] was 5.71. On the same count and under the same terms, with `Cc1ccccc1NC(=O)Nc1ccc(NC(=O)C[C@@H](CC(C)C)C(=O)NC(CC(=O)O)c2ccc3c(c2)OCO3)cc1` (some centres unmarked) [SX56] the figure was 7.26; with `Cc1ccccc1NC(=O)Nc1ccc(CC(=O)Nc2ccc3c(c2)C(=O)N(CCC(=O)O)CC(=O)N3C2CCN(Cc3ccccc3)CC2)cc1` [BX43], 6.56. The same measure, in the same setting: with `CN1C(=O)CN(CCC(=O)O)C(=O)c2cc(NC(=O)Cc3ccc(NC(=O)Cc4c[nH]c5ccccc45)cc3)ccc21` [BX11] the figure was 5.04. In the case of `Cc1ccccc1NC(=O)Nc1ccc(NC(=O)[C@@H]2CCCN2C(=O)CN(CCC(=O)O)C(=O)c2ccccc2)cc1` [AX35], in series [1], the pIC50 was 7.07. On the same count and under the same terms, with `CC(C)CN(CC(=O)Nc1ccc(NC(=O)Nc2ccccc2)cc1)C(=O)CN(CCC(=O)O)C(=O)c1ccccc1` [AX28] the figure was 6.82; with `COc1cccc(C(=O)N(CCC(=O)O)CC(=O)N(CCC(C)C)CC(=O)Nc2ccc(CC(=O)N3CCc4ccccc43)cc2)c1` [AX21], 6.12; with `Cc1ccccc1NC(=O)Nc1ccc(CC(=O)Nc2ccc(C(=O)O)c(OCCCC(=O)O)c2)cc1` [RX17], 6.39. The same measure, in the same setting: with `COc1ccc(C(CC(=O)O)NC(=O)C(CC(=O)Nc2ccc(NC(=O)Nc3ccccc3)cc2)CC(C)C)cc1` (centres unmarked) [SX23] the figure was 5.88.

(Values after US6686350B1, “Cell adhesion inhibitors” (Biogen, Inc., priority 1996, dated 2004).)
